Results taken from patent US9969755B2, “Photodynamic therapy photosensitizers” (The Royal Institution for the Advancement of …, priority 2016, dated 2018).
≈ marks a conversion by molar mass, not a printed value.

Assays:
[1] = ^1O2 quantum yield, photooxidation of DMA (indirect method); assay type: physicochemical; details: consumption of dimethylanthracene, Rose Bengal standard, air equilibrated acetonitrile
Experimental: Solutions of 9,10-dimethylanthracene (DMA, 50 μM) and photosensitizers (compound 3-10) in air equilibrated acetonitrile were irradiated in 10 mm path length quartz cell (3 ml) with a Nd:Yag laser exciting at 532 nm. Laser excitation was performed at 10 Hz, providing one laser output for every discharge of the flashlamp. An irradiation time of 1 s is equivalent to 10 laser pulses. The energy of each pulse was 10 mJ. The kinetics of DMA photooxidation were studied by following the decrease of the absorbance at λ=377 nm. The observed rate constant (kobs) was obtained by a linear least-squares fit of the semilogarithmic plot of ln [DMA]0/[DMA] (see FIG. 14). Quantum yields of ^1O2 production (φΔ^I) were calculated comparing the kobs=kq [^1O2] for the corresponding photosensitizer with that for Rose Bengal, which was used as a reference (φΔ=0.54).^1 Measurements of the sample and the reference under the same conditions afforded φΔ^I for compounds (3-10) by direct comparison of the slope in the linear region of the plots.
For the indirect detection of ^1O2, it is possible to determine the kq value considering that the production of ^1O2 is constant compare with the initial concentration of DMA. According to these, a pseudo first-order kinetic for this reaction is proposed (equations 2 to 5): […]
The conversion of DMA followed pseudo-first order kinetics with the different photosensitizers (see FIG. 14). From equation 5, it was possible to determine kobs and ^1O2.

[2] = Gibbs free energy for photoinduced electron transfer (equation 6); assay type: physicochemical; details: for ΔGeT (Singlet), Gibbs free energy for PeT: PeT from chromanol to singlet excited state; for ΔGeT (Triplet), Gibbs free energy for PeT: PeT from chromanol to triplet excited state, endergonic
From the text: Consistent with quenching of the singlet via PeT from the chromanol segment, the Gibbs free energy for photoinduced electron transfer (ΔGeT^0) was exergonic for compounds 7 and 8, in the range of 0.4 eV (see Table 3).
Based on these calculations ΔGeT^0 for PeT from the chromanol to the triplet excited state of 3-6 was endergonic, ca. 0.27 eV, accounting for the small intermolecular rate constant of quenching measured for these compounds in the presence of either PMHC or trolox, and for the long triplet decay rate constant kT recorded for compound 8. Importantly, the efficiency of PeT also relies in the distance between the trap segment and the photosensitizers a factor that may additionally contribute to the differences observed between compound 7 (methylene linker) and compound 8 (ester linker).

[3] = Intermolecular quenching of ^1O2 phosphorescence by chromanol rings; assay type: physicochemical; details: ^1O2 generated upon irradiation of compound 5, air equilibrated acetonitrile
From the text: To test whether 7 is equally efficient at deactivating ^1O2 as α-tocopherol, we generated ^1O2 upon irradiation of compound 5 and monitored the ^1O2 phosphorescence lifetime in the presence of increasing amounts of either 7 or PMHC (an α-tocopherol analogue lacking the phytyl tail).

[4] = Activation of compounds 7 and 8 with dicumyl peroxide (cumyloxyl radicals); assay type: physicochemical; details: 9 with respect to 7; reaction with cumyloxyl radicals/ROS, 1 equivalent sacrificial PMHC
Experimental: Compounds 7 and 8 were oxidized/activated in air equilibrated acetonitrile solution upon photolysis of a 100 μM dicumyl peroxide. Irradiation was performed within a fluorimeter to generate ROS upon exciting with ultraviolet light at 263 nm (2.4 mW/cm^2). The fluorescence intensity at the emission maxima of the probes was monitored over time.
Activation of the dormant photosensitizer 7 or 8 (deactivation of PeT) following their reaction with ROS was subsequently tested in the presence of alkoxyl radicals. These ROS were generated at a constant rate upon photolysis at 263 nm of an air equilibrated 100 μM dicumyl peroxide solution in acetonitrile. We followed over time the increase in fluorescence intensity (drop in PeT) to monitor the extent of activation, see FIG. 16. Activation was complete once the intensity reached a plateau.^28,45 At this point, the trap segment in 7 and 8 reacted to completion with alkoxyl radicals to generate 9 and 10, respectively. […] Deactivation of PeT in the singlet excited state in turn manifested in the ca. 7-fold and 2-fold emission enhancements recorded for 9 vs 7, and 10 vs 8, respectively (FIG. 16).

E. coli ATCC 25922 [5] = experiment: Photodynamic minimal inhibitory concentration (PD-MIC); assay type: cell-based; details: Escherichia coli
Experimental: (§1) The microorganism used for this study is E. coli ATCC 25922. Stock cultures were preserved at −70° C. using glycerol 10% (v/v) as the cryoprotectant, and the strain was grown in Luria Bertania broth (LB). Bacterial culture was prepared inoculating a single colony from a pure culture. After overnight incubation at 37° C. for 18 h, the culture reached a density of approximately 1×10^9 CFU/mL and it was diluted to 10^6 CFU/mL.
We carried out PDI in vitro studies with E. coli. Cells (10^6 CFU/mL) were incubated with 2-fold diluted solutions of compounds 7 and 9 (activated form of 7) in buffer PBS and LB at a proportion of 70:30% (v/v), to obtain concentrations between 40-0.078 μM. Stock solutions of BODIPY 7 and 9 (400 μM) were prepared in acetonitrile. […] PD-MIC was 40 μM for compounds 7 and 9 in dark conditions. Under light irradiation the PD-MIC was 40 μM and 10 μM for 7 and 9 respectively.

E. coli ATCC 25922 [6] = experiment: Antibacterial photodynamic inactivation, regular vs hydrogen peroxide stressed bacteria (CFU counts); assay type: cell-based
Experimental: as §1
At the end of the irradiation time, 100 μL aliquots were placed in 96 wells from each tube and serially diluted 10-fold in PBS to obtain dilutions of 10^1 to 10^4 fold, in addition to the original concentration, on agar plates to determine CFU. Viability counts were performed at 0 and 1 hour in either dark or light conditions from each dilution, 10 μL aliquots were plated on LB agar. Plates were streaked in triplicate and incubated for 18 h at 37° C. Each experiment was performed at least three times on different days.
To stress the cells we utilized hydrogen peroxide, known to stimulate ROS production in Gram-negative cells.^79,80 We incubated bacteria from the E. coli strain (10^6 colony forming units (CFU)/mL) with 500 nM hydrogen peroxide for 2 hours at 37° C. Following precipitation and resuspension of this bacteria in media with no H2O2, we added compound 7. In parallel, compound 7 was also added to bacteria that were not exposed to H2O2.

SMILES | ΦΔ^I (singlet oxygen quantum yield, indirect) [1] | ΔGeT (Singlet), Gibbs free energy for PeT [2] [eV] | ΔGeT (Triplet), Gibbs free energy for PeT [2] [eV] | singlet oxygen quenching rate constant kq [3] [M⁻¹ s⁻¹] | enhancement in φΔ^D (^1O2 production) on activation [4] [fold] | MIC (E. coli ATCC 25922 [5]; ATCC25922, light or radiation study, under light irradiation) [µM] | MIC (E. coli ATCC 25922 [5]; ATCC25922, dark conditions) [µM] | colony forming units after irradiation, stressed cells (E. coli ATCC 25922 [6]; E. coli incubated with 500 nM hydrogen peroxide 2 h, 1 h irradiation 2.6 mW/cm^2, 520 nm) | MIC (E. coli ATCC 25922 [6]; Escherichia coli, ATCC25922, 7 activated in the stressed bacterial suspension (500 nM hydrogen peroxide), 9 pre-activated with dicumyl peroxide, 1 hour, read-out: PD-MIC) [µM] | colony forming units, dark controls (E. coli ATCC 25922 [6]; in the dark, 7 with or without H2O2) | colony forming units after irradiation, non-stressed cells (E. coli ATCC 25922 [6]; no H2O2, 1 h irradiation 2.6 mW/cm^2, 520 nm)
CC1=C(I)C(C)=[N+]2C1=C(C)c1c(C)c(I)c(C)n1[B-]2(F)F [Compound 3, 2,6-diiodo-1,3,5,7,8-pentamethyl-pyrromethene fluoroborate] | 0.75 ± 0.04 | −0.37 | 0.262 |  |  |  |  |  |  |  | 
CC1=C(Br)C(C)=[N+]2C1=C(C)c1c(C)c(Br)c(C)n1[B-]2(F)F [Compound 4, 2,6-dibromo-1,3,5,7,8-pentamethyl-pyrromethene fluoroborate] | 0.64 ± 0.03 | −0.38 | 0.282 |  |  |  |  |  |  |  | 
CC(=O)OCC1=C2C(C)=C(I)C(C)=[N+]2[B-](F)(F)n2c(C)c(I)c(C)c21 [Compound 5, 8-Acetoxymethyl-2,6-diiodo-1,3,5,7-tetramethyl Pyrromethene Fluoroborate] | 0.95 ± 0.03 | −0.4 | 0.269 |  |  |  |  |  |  |  | 
CC(=O)OCC1=C2C(C)=C(Br)C(C)=[N+]2[B-](F)(F)n2c(C)c(Br)c(C)c21 [Compound 6, 8-Acetoxymethyl-2,6-dibromo-1,3,5,7-tetramethyl Pyrromethene Fluoroborate] | 0.79 ± 0.02 | −0.43 | 0.287 |  |  |  |  |  |  |  | 
CC1=C(Br)C(C)=[N+]2C1=C(CC1(C)CCc3c(C)c(O)c(C)c(C)c3O1)c1c(C)c(Br)c(C)n1[B-]2(F)F (centres unmarked) [Compound 7, 8-((6-Hydroxy-2,5,7,8-tetramethylchroman-2-yl)-methyl)-2,6-dibromo-1,3,5,7-tetramethyl] |  |  |  | 2e+08 | ~40 | 40 (≈ 25 µg/mL) | 40 (≈ 25 µg/mL) | drastic drop in colony forming units | 10 (≈ 6.24 µg/mL) | no effect in the CFU | No inactivation was observed
